Measured values as given in patent publication US7273604B2, “Anti-asthmatic combinations comprising surface active phospholipids” (Britannia Pharmaceuticals Limited, priority 1998, dated 2007).
Values joined by “and” are separate entries in the source; they are usually repeats but may differ in a detail not shown here. Identical values can stand only once.

Tested on: bronchial epithelium
Assay: Binding (adsorption) of 14C-labelled DPPC to bronchial epithelium sections, liquid scintillation counting
Set-up: species or system porcine
Description: • L-α-Phosphatidylcholine, 1,2-di[1-^14 C]palmitoyl in Toluene:Ethanol (1:1 v/v), 114 mCi/mmol, 50 μCi in 2 mL (CFA6O4 B36, Amersham) • L-α-Phosphatidylcholine, dipalmitoyl (C16:0) (P-6267, Sigma) • DL-α-Phosphatidyl-DL-glycerol, dipalmitoyl (C16:0) (P-5650, Sigma) • Egg Phosphatidylglycerol (Batch 24756, Macfarlan Smith, Ltd.) • Sodium Chloride, 0.9%, B.P. (Baxter Healthcare) • Calcium Chloride (C-4901, Sigma) • Toluene (T-4428, Sigma) • Ethanol, AnalaR (10107.7Y, BDH) • NCS-II Tissue Solubilizer, 0.5N Solution (NNCS-502), Amersham) • OCS Organic Counting Scintillant (NOCS104, Amersham) In preparation for the dispersions in which the epithelium would be incubated, stock solutions of the phospholipid components were prepared on the first day of Run 1. These solutions were as follows: • L-α-DPPC, 2.4 mg. mL^−1 in toluene:ethanol, 1:1 • DL-α-DPPG, 3.0 mg. mL^−1 in toluene:ethanol, 1:1 • Egg PG, 3.0 mg. mL^−1 in toluene:ethanol, 1:1 All of the above solutions were stored at 4° C. in glass vials, the threads of which were sealed with teflon tape to minimise evaporation of the solvent. Each glass vial was then placed inside a second, tightly capped glass vial. These solutions were used for each of the five runs in the trial. A solution of 200 mg. L^−1 CaCl^2 in 0.9% saline was also prepared on the first day of Run 2 and was used in each of Runs 2 to 5. […]
Four dispersions were prepared on the first day of each run. […] In addition, Group 2 received 5.5 μL (16.5 μg) DL-α-DPPG, while the same quantity of egg PG was added to Group 3. […] When the number of sections was increased, the volumes of all components were increased accordingly, keeping all quantities in the same proportions as above. […]

Structure (SMILES)	Total DPPC Adsorbed to Bronchial Epithelium (individual sections, incubation at 37° C. for 24 h in 0.9% saline dispersion, rinsed 20 times)	Total DPPC Adsorbed to Bronchial Epithelium, Mean (mean of n 10 sections, incubation at 37° C. for 24 h in 0.9% saline dispersion, rinsed 20 times) [μg/cm^2]	binding of DPPC to bronchial epithelium (in words) (DPPC in the presence of the named phosphatidyl glycerol, 1:1, compared with DPPC only)
CCCCCCCCCCCCCCCC(=O)OC[C@H](COP(=O)([O-])OCC[N+](C)(C)C)OC(=O)CCCCCCCCCCCCCCC [DPPC, dipalmitoyl phosphatidyl choline]	0.280 μg/cm^2 and 0.528 μg/cm^2 and 0.192 μg/cm^2 and 0.340 μg/cm^2 and 0.321 μg/cm^2 and 0.341 μg/cm^2 and 0.299 μg/cm^2 and 0.219 μg/cm^2 and 0.116 μg/cm^2 and 0.276 μg/cm^2	0.291	–
CCCCCCCCCCCCCCCC(=O)OCC(COP(=O)(O)OCC(O)CO)OC(=O)CCCCCCCCCCCCCCC (racemic) [DPPG, DL-α-Phosphatidyl-DL-glycerol, dipalmitoyl (C16:0)]	–	–	increased binding of DPPC to bronchial epithelium
